Source: patent US10940201B2, “Nucleic acid derivative having immunostimulatory activity” (Shionogi & Co., Ltd., priority 2015, dated 2021)

How the values were obtained:
[1] = Subcutaneous irritation test in a single dose; type: in vivo, rats; conditions: for Gross: Subcutaneous: White nudules / Histopathological, Subcutaneous: Cyst-like structure accompanied with formulation of fibrous capsule / Gross: Epidermis: Crust / Histopathological, Subcutaneous: Cyst-like structure: number of the observed animals; for Histopathological, Muscle layer: Monocyte infiltration / Histopathological, Subcutaneous: Edema / Histopathological, Subcutaneous: Granulomatous infiltration / Histopathological, Subcutaneous: Neutrophilic infiltration / Histopathological, Subcutaneous: Granulomatous inflammation / Histopathological, Subcutaneous: Monocyte infiltration / Histopathological, Subcutaneous: Necrosis: total score of grades; for Administration site, Gross: Subcutaneous: Red spots, Erythema / Administration site, Gross: Subcutaneous: White accumulation / Administration site, Histopathological: Subcutaneous: Cyst-like structure: number of the observed animals (of 3); for Administration site, Gross: Subcutaneous: Red spots, Erythema / Administration site, Gross: Subcutaneous: White accumulation / Administration site, Histopathological: Subcutaneous: Cyst-like structure / Number of deaths / Number of imminent dissections / Administration site, Histopathological: Muscle layer: Edema / Administration site, Histopathological: Muscle layer: Neutrophilic infiltration / Administration site, Histopathological: Subcutaneous: Bleeding / Administration site, Histopathological: Subcutaneous: Edema / Administration site, Histopathological: Subcutaneous: Neutrophilic infiltration: one day after administration; for Number of deaths / Number of imminent dissections / Administration site, Histopathological: Muscle layer: Edema / Administration site, Histopathological: Muscle layer: Neutrophilic infiltration / Administration site, Histopathological: Subcutaneous: Bleeding / Administration site, Histopathological: Subcutaneous: Edema / Administration site, Histopathological: Subcutaneous: Neutrophilic infiltration: 3 animals; for Administration site, Histopathological: Muscle layer: Edema / Administration site, Histopathological: Muscle layer: Neutrophilic infiltration / Administration site, Histopathological: Subcutaneous: Bleeding / Administration site, Histopathological: Subcutaneous: Edema / Administration site, Histopathological: Subcutaneous: Neutrophilic infiltration: total score (Minimal 1, Mild 2, Moderate 3)
Protocol: Subcutaneous irritation of a compound of the present invention was evaluated by gross examination and histopathological examination about the skin at necropsy one day, one and four week(s) after subcutaneous administration in a single dose.
The compound of the present invention was subcutaneously administered to the center of back between the shoulder blades of rats. At necropsy one day, one or four week(s) after administration (isoflurane anesthesia, euthanasia by bleeding), skin at the administration site was collected, grossly observed and fixed in 10% neutral buffered formalin solution. The fixed skin was cut out, embedded and put in a thin slice by the usual methods, and Hematoxylin-eosin (HE) stained sections were made. The pathological observers were observed the HE stained sections by an optical microscope, and recorded the histopathological findings. The changes in pathological findings were evaluated in four grades of Minimal; ±, Mild; +, Moderate; 2+ and Marked; 3+. When any grade was not appropriate for the finding, it was recorded as Positive.
SEQ-2, SEQ-49 or an adjuvant of the present invention was dissolved in phosphate buffered saline and administered at 4.71, 15.7 or 47.1 nmol/1 mL/site, respectively.

B16F10 cells = assay: Anti-tumor effect of TRP2 peptide vaccine using an adjuvant; type: in vivo, mouse; conditions: for Tumor inhibition rate (Day 12 after transplantation) / Tumor inhibition rate (Day 14 after transplantation): compared to ODN2006 (SEQ-49)
Protocol: After immunization by TRP2 peptide vaccine, B16F10 cells (ATTC) which is mouse melanoma expressing TRP2 protein was subcutaneously transplanted to evaluate anti-tumor effect. […] The major and minor axes of the engrafted tumor were measured every 2 to 3 days, and the tumor volume was calculated by the formula: (major axis×minor axis^2)/2 Calculation method for indicators of anti-tumor effect For the adjuvant comprising ODN1826 100·(average tumor volume of adjuvant group)/(average tumor volume of ODN1826 group) For the adjuvant comprising ODN2006 100·(average tumor volume of adjuvant group)/(average tumor volume of ODN2006 group)

[2] = four weeks after administration, 4.71 nmol/site
[3] = four weeks after administration, 15.7 nmol/site
[4] = four weeks after administration, 47.1 nmol/site
[5] = one week after administration, 4.71 nmol/site
[6] = one week after administration, 15.7 nmol/site
[7] = one week after administration, 47.1 nmol/site

In the case of ODN2006 [SEQ-49], the “Number of deaths/imminent dissections” value [1, 2] is reported as 0/0, the “Gross: Subcutaneous: White nudules” value [1, 2] is reported as 0 and the “Histopathological, Subcutaneous: Cyst-like structure accompanied with formulation of fibrous capsule” value (“Histopathological … of fibrous capsule” for short) [1, 2] is reported as 0. For the same substance, the “Histopathological, Muscle layer: Monocyte infiltration” value (shortened to “Histopathological, Muscle layer”) [1, 2] was 0, the “Histopathological, Subcutaneous: Edema” value [1, 2] was 0 and the “Histopathological, Subcutaneous: Granulomatous infiltration” value [1, 2] was 0. The “Histopathological, Subcutaneous: Neutrophilic infiltration” value [1, 2] was 0, the “Number of deaths/imminent dissections” value [1, 3] was 0/0 and the “Gross: Subcutaneous: White nudules” value [1, 3] was 0. The “Histopathological … of fibrous capsule” value [1, 3] was 0, the “Histopathological, Muscle layer” value [1, 3] was 0 and the “Histopathological, Subcutaneous: Edema” value [1, 3] was 0. The “Histopathological, Subcutaneous: Granulomatous infiltration” value [1, 3] was 0, the “Histopathological, Subcutaneous: Neutrophilic infiltration” value [1, 3] was 0 and the “Number of deaths/imminent dissections” value [1, 4] was 0/0. For the same substance, the “Gross: Subcutaneous: White nudules” value [1, 4] was 0, the “Histopathological … of fibrous capsule” value [1, 4] was 0 and the “Histopathological, Muscle layer” value [1, 4] was 0. For the same substance, the “Histopathological, Subcutaneous: Edema” value [1, 4] was 0, the “Histopathological, Subcutaneous: Granulomatous infiltration” value [1, 4] was 0 and the “Histopathological, Subcutaneous: Neutrophilic infiltration” value [1, 4] was 0. For the same substance, the “Administration site, Gross: Subcutaneous: Red spots, Erythema” value (shortened to “Administration site, Gross … Erythema”) ([1]; 4.71 nmol/site) was 0, the “Administration site, Gross: Subcutaneous: White accumulation” value (shortened to “Administration site … White accumulation”) ([1]; 4.71 nmol/site) was 0 and the “Administration site, Histopathological: Subcutaneous: Cyst-like structure” value ([1]; 4.71 nmol/site) was 0. For the same substance, the “Administration site, Gross … Erythema” value ([1]; 15.7 nmol/site) was 0, the “Administration site … White accumulation” value ([1]; 15.7 nmol/site) was 0 and the “Administration site, Histopathological: Subcutaneous: Cyst-like structure” value ([1]; 15.7 nmol/site) was 0. For the same substance, the “Administration site, Gross … Erythema” value ([1]; 47.1 nmol/site) was 1, the “Administration site … White accumulation” value ([1]; 47.1 nmol/site) was 0 and the “Administration site, Histopathological: Subcutaneous: Cyst-like structure” value ([1]; 47.1 nmol/site) was 0. The Number of deaths ([1]; 4.71 nmol/site) was 0/0, the “Number of imminent dissections” value ([1]; 4.71 nmol/site) was 0/0 and the Number of deaths ([1]; 15.7 nmol/site) was 0/0. The “Number of imminent dissections” value ([1]; 15.7 nmol/site) was 0/0, the Number of deaths ([1]; 47.1 nmol/site) was 0/0 and the “Number of imminent dissections” value ([1]; 47.1 nmol/site) was 0/0. The “Number of deaths/imminent dissections” value [1, 5] was 0/0, the “Gross: Epidermis: Crust” value [1, 5] was 1 and the “Gross: Subcutaneous: White nudules” value [1, 5] was 0. For the same substance, the “Histopathological, Subcutaneous: Cyst-like structure” value [1, 5] was 0, the “Histopathological, Subcutaneous: Edema” value [1, 5] was 4 and the “Histopathological, Subcutaneous: Granulomatous inflammation” value [1, 5] was 0. The “Histopathological, Subcutaneous: Monocyte infiltration” value [1, 5] was 3, the “Histopathological, Subcutaneous: Necrosis” value (from here on “Histopathological … Necrosis”) [1, 5] was 0 and the “Histopathological, Subcutaneous: Neutrophilic infiltration” value [1, 5] was 0. The “Number of deaths/imminent dissections” value [1, 6] was 0/0, the “Gross: Epidermis: Crust” value [1, 6] was 1 and the “Gross: Subcutaneous: White nudules” value [1, 6] was 0. The “Histopathological, Subcutaneous: Cyst-like structure” value [1, 6] was 0, the “Histopathological, Subcutaneous: Edema” value [1, 6] was 6 and the “Histopathological, Subcutaneous: Granulomatous inflammation” value [1, 6] was 0. The “Histopathological, Subcutaneous: Monocyte infiltration” value [1, 6] was 6, the “Histopathological … Necrosis” value [1, 6] was 0 and the “Histopathological, Subcutaneous: Neutrophilic infiltration” value [1, 6] was 0. For the same substance, the “Number of deaths/imminent dissections” value [1, 7] was 0/0, the “Gross: Epidermis: Crust” value [1, 7] was 0 and the “Gross: Subcutaneous: White nudules” value [1, 7] was 0. For the same substance, the “Histopathological, Subcutaneous: Cyst-like structure” value [1, 7] was 0, the “Histopathological, Subcutaneous: Edema” value [1, 7] was 5 and the “Histopathological, Subcutaneous: Granulomatous inflammation” value [1, 7] was 0. The “Histopathological, Subcutaneous: Monocyte infiltration” value [1, 7] was 8, the “Histopathological … Necrosis” value [1, 7] was 0 and the “Histopathological, Subcutaneous: Neutrophilic infiltration” value [1, 7] was 0. The “subcutaneous irritation findings four weeks after administration” value ([1]; rats, single subcutaneous dose, four weeks) was “inflammation was almost recovered”, the “subcutaneous irritation findings one day after administration” value ([1]; rats, single subcutaneous dose, one day) was “acute inflammation, mainly neutrophil infiltration, was observed under the skin” and the “subcutaneous irritation findings one week after administration” value ([1]; rats, single subcutaneous dose, one week) was “inflammation, mainly lymphocyte and macrophage, was observed from subcutaneous to dermis tissue”. For the same substance, the “Administration site, Histopathological: Muscle layer: Edema” value ([1]; 4.71 nmol/site) was 2, the “Administration site, Histopathological: Muscle layer: Neutrophilic infiltration” value ([1]; 4.71 nmol/site) was 4 and the “Administration site, Histopathological: Subcutaneous: Bleeding” value ([1]; 4.71 nmol/site) was 2. For the same substance, the “Administration site, Histopathological: Subcutaneous: Edema” value ([1]; 4.71 nmol/site) was 4, the “Administration site, Histopathological: Subcutaneous: Neutrophilic infiltration” value ([1]; 4.71 nmol/site) was 6 and the “Administration site, Histopathological: Muscle layer: Edema” value ([1]; 15.7 nmol/site) was 1. The “Administration site, Histopathological: Muscle layer: Neutrophilic infiltration” value ([1]; 15.7 nmol/site) was 6, the “Administration site, Histopathological: Subcutaneous: Bleeding” value ([1]; 15.7 nmol/site) was 1 and the “Administration site, Histopathological: Subcutaneous: Edema” value ([1]; 15.7 nmol/site) was 5. For the same substance, the “Administration site, Histopathological: Subcutaneous: Neutrophilic infiltration” value ([1]; 15.7 nmol/site) was 6, the “Administration site, Histopathological: Muscle layer: Edema” value ([1]; 47.1 nmol/site) was 0 and the “Administration site, Histopathological: Muscle layer: Neutrophilic infiltration” value ([1]; 47.1 nmol/site) was 5. For the same substance, the “Administration site, Histopathological: Subcutaneous: Bleeding” value ([1]; 47.1 nmol/site) was 2, the “Administration site, Histopathological: Subcutaneous: Edema” value ([1]; 47.1 nmol/site) was 5 and the “Administration site, Histopathological: Subcutaneous: Neutrophilic infiltration” value ([1]; 47.1 nmol/site) was 6. The “effect of inhibition on tumor progression of B16F10 cells (in words)” value (B16F10 cells) was “little effect of inhibition on tumor progression of B16F10 cells”, the “Tumor inhibition rate (Day 12 after transplantation)” value (B16F10 cells; Table 41, 4.71 nmol) was 0.00% and the “Tumor inhibition rate (Day 12 after transplantation)” value (B16F10 cells; Table 42, 4.71 nmol) was 0.00%. The “Tumor inhibition rate (Day 14 after transplantation)” value (B16F10 cells; Table 43, 4.71 nmol) was 0.00%, the “Tumor inhibition rate (Day 14 after transplantation)” value (B16F10 cells; Table 45, 4.71 nmol) was 0.00% and the “Tumor inhibition rate (Day 14 after transplantation)” value (B16F10 cells; Table 46, 4.71 nmol) was 0.00%. The “Tumor inhibition rate (Day 14 after transplantation)” value (B16F10 cells; Table 48, 4.71 nmol) was 0.00%.
